Article PMC5088614 (PeerJ, 2016)
Converted amounts (≈) assume the structure as drawn. “And” between values parts separate entries of the source, which are not always exact repeats. Equal entries are not always repeated. “Also recorded” adds a separate entry of the source. Where two headings read alike, the source gives them in different places. Positions of bridges follow the written chain, without caps; N, C: chain ends. Residues, ends and D or L forms follow the SMILES beside them.

Columns and labels:
[1] = tested on: E.coli ATCC 25922; type: cell-based, Escherichia coli
[2] = tested on: B. pseudomallei biofilm; conditions: cited from earlier work
[3] = tested on: A549, HEPG2 and AGS cells
[4] = tested on: B. pseudomallei strain K96243; type: cell-based, Burkholderia pseudomallei
[5] = tested on: B. pseudomallei K96243 biofilm; type: cell-based, Burkholderia pseudomallei; parameters: Mean Diff., Untreated vs treated, Dunnett's Multiple Comparison Test (data for figure 2): unit not given here
[6] = tested on: B. pseudomallei strains used in the preliminary study; type: cell-based, Burkholderia pseudomallei
[7] = tested on: human gastric adenocarcinoma (AGS) cells; conditions: cited from earlier work
[8] = tested on: Escherichia coli (ATCC 29522)
[9] = tested on: human lung epithelial (A549) cells; conditions: cited from earlier work
[10] = tested on: B. pseudomallei strain K96243 and clinical strains UMC031, UMC080, UMC089; conditions: for MIC, B. pseudomallei (average): 24 h
[11] = tested on: E. coli; type: cell-based, Escherichia coli
[12] = tested on: human hepatocellular carcinoma (HepG2) cells
[13] = tested on: human hepatocellular carcinoma (HepG2) cells; conditions: cited from earlier work
[14] = tested on: human gastric adenocarcinoma (AGS) cells
[15] = tested on: B. pseudomallei isolates; type: cell-based, Burkholderia pseudomallei
[16] = tested on: human lung epithelial (A549) cells
[17] = tested on: B. pseudomallei K96243; type: cell-based, Burkholderia pseudomallei

## CC(C)(O/N=C(\C(=O)N[C@@H]1C(=O)N2C(C(=O)[O-])=C(C[n+]3ccccc3)CS[C@H]12)c1csc(N)n1)C(=O)O [CAZ, ceftazidime]
[1]
  Antibiotic susceptibility by disk diffusion: S
[2]
  concentration with anti-B. pseudomallei biofilm / biofilm inhibition activity: 936 µM
[3]
  Mean Diff., 0 vs comparator, Dunnett's Multiple Comparison Test (MTT): 13.7
[4]
  time after exposure to growth inhibition / bactericidal endpoint: 8 h
[5]
  Mean Diff., Untreated vs treated, Dunnett's Multiple Comparison Test (data for figure 2): 7.842
  reduction of surviving bacteria in biofilm state compared to the untreated (significance): significant reduction
[5]; 24 h
  inhibition of bacteria in biofilm state compared to untreated: complete inhibition
[6]
  Antibiotic susceptibility by disk diffusion: R and S

## O=C(O)c1cn(C2CC2)c2cc(N3CCNCC3)c(F)cc2c1=O [CIP]
[1]
  Antibiotic susceptibility by disk diffusion: S

## O=C(N[C@H](CO)[C@H](O)c1ccc([N+](=O)[O-])cc1)C(Cl)Cl [C]
[1]
  Antibiotic susceptibility by disk diffusion: S
[6]
  Antibiotic susceptibility by disk diffusion: S and R

## C[C@H]1c2cccc(O)c2C(O)=C2C(=O)[C@]3(O)C(O)=C(C(N)=O)C(=O)[C@@H](N(C)C)[C@@H]3[C@@H](O)[C@@H]21 [DXT]
[1]
  Antibiotic susceptibility by disk diffusion: S
[6]
  Antibiotic susceptibility by disk diffusion: S

## C[C@@H](O)[C@H]1C(=O)N2C(C(=O)O)=C(SCCN=CN)C[C@H]12 [IMI]
[1]
  Antibiotic susceptibility by disk diffusion: S
[6]
  Antibiotic susceptibility by disk diffusion: S

## CC[C@H](C)[C@H](NC(=O)[C@H](CCCCN)NC(=O)[C@H](CCC(=O)O)NC(=O)[C@H](CCCCN)NC(=O)[C@H](CO)NC(=O)[C@H](CCCCN)NC(=O)[C@H](CCCNC(=N)N)NC(=O)[C@H](Cc1ccccc1)NC(=O)[C@H](Cc1ccccc1)NC(=O)[C@H](CC(=O)O)NC(=O)CNC(=O)[C@H](CC(C)C)NC(=O)[C@@H](N)CC(C)C)C(=O)NCC(=O)N[C@@H](CCCCN)C(=O)N[C@@H](CCC(=O)O)C(=O)N[C@@H](Cc1ccccc1)C(=O)N[C@@H](CCCCN)C(=O)N[C@@H](CCCNC(=N)N)C(=O)N[C@H](C(=O)N[C@H](C(=O)N[C@@H](CCC(N)=O)C(=O)N[C@@H](CCCNC(=N)N)C(=O)N[C@H](C(=O)N[C@@H](CCCCN)C(=O)N[C@@H](CC(=O)O)C(=O)N[C@@H](Cc1ccccc1)C(=O)N[C@@H](CC(C)C)C(=O)N[C@@H](CCCNC(=N)N)C(=O)N[C@@H](CC(N)=O)C(=O)N[C@@H](CC(C)C)C(=O)N[C@H](C(=O)N1CCC[C@H]1C(=O)N[C@@H](CCCNC(=N)N)C(=O)N[C@H](C(=O)N[C@@H](CCC(=O)O)C(=O)N[C@@H](CO)C(=O)O)[C@@H](C)O)C(C)C)[C@@H](C)CC)C(C)C)[C@@H](C)CC [LL-37]
[7]
  cytotoxicity to AGS: cytotoxic
[8]; ATCC 29522, 24 h
  MBC, E.coli (ATCC 29522): 14.8 ± 6.42 µM (≈ 66.5 µg/mL)
  MIC, E.coli (ATCC 29522): 14.8 ± 6.42 µM (≈ 66.5 µg/mL)
[9]
  cytotoxicity to A549: cytotoxic

## C[C@@H](O)[C@H]1C(=O)N2C(C(=O)O)=C(S[C@@H]3CN[C@H](C(=O)N(C)C)C3)[C@H](C)[C@H]12 [MRP, meropenem]
[1]
  Antibiotic susceptibility by disk diffusion: S
[3]
  Mean Diff., 0 vs comparator, Dunnett's Multiple Comparison Test (MTT): 11.53
[5]
  Mean Diff., Untreated vs treated, Dunnett's Multiple Comparison Test (data for figure 2): 7.842
  reduction of surviving bacteria in biofilm state compared to the untreated (significance): significant reduction
[5]; 24 h
  inhibition of bacteria in biofilm state compared to untreated: complete inhibition
[6]
  Antibiotic susceptibility by disk diffusion: S

## CC(C)C[C@H](NC(=O)[C@H](CCCNC(=N)N)NC(=O)CNC(=O)CNC(=O)[C@@H](N)CCCNC(=N)N)C(=O)N[C@H]1CSSC[C@@H](C(=O)N[C@H](C(=O)NCC(=O)N[C@@H](CCCNC(=N)N)C(N)=O)C(C)C)NC(=O)[C@H](C(C)C)NC(=O)[C@@H]2CSSC[C@H](NC(=O)[C@H](Cc3ccc(O)cc3)NC1=O)C(=O)N[C@@H](CCCNC(=N)N)C(=O)N[C@@H](CCCNC(=N)N)C(=O)N[C@@H](CCCNC(=N)N)C(=O)N[C@@H](Cc1ccccc1)C(=O)N2 [PG1, Protegrin 1]
[10]
  MIC, B. pseudomallei (average): 15.46 ± 5.02 µM (≈ 33.3 µg/mL)
[11]
  Susceptibility of strain to AMP (S/R), preliminary study: S
[12]; 2 h, 115 μM
  percentage of viable cells, HEPG2: 5.0%
[3]
  Mean Diff., 0 vs comparator, Dunnett's Multiple Comparison Test (MTT): 96.14
[13]
  cytotoxicity against Hep G2: cytotoxic
[5]
  Mean Diff., Untreated vs treated, Dunnett's Multiple Comparison Test (data for figure 2): 6.743
  reduction of surviving bacteria in biofilm state compared to the untreated (significance): significant reduction
  surviving bacteria in biofilm state 24 h post exposure: 1.1 log CFU/biofilm
[8]; 37 °C 24 h
  MIC, E.coli (ATCC 29522): 5.8 ± 1.09E-15 μM
[14]; 2 h, 115 μM
  percentage of viable cells, AGS: 3.0%
[15]
  B. pseudomallei isolates susceptible to the AMP: 100%
[16]; 2 h, 115 μM
  percentage of viable cells, A549: 3.3%

## CN(C)c1cc(NC(=O)CNC(C)(C)C)c(O)c2c1C[C@H]1C[C@H]3[C@H](N(C)C)C(O)=C(C(N)=O)C(=O)[C@@]3(O)C(O)=C1C2=O [TGC]
[6]
  Antibiotic susceptibility by disk diffusion: R and S

## CC[C@H](C)[C@@H]1NC(=O)CNC(=O)[C@H](CCCNC(=N)N)NC(=O)[C@H](Cc2ccc(O)cc2)NC(=O)[C@@H]2CSSC[C@H](NC1=O)C(=O)N[C@@H](Cc1ccc(O)cc1)C(=O)N[C@@H](CCCNC(=N)N)C(=O)N[C@@H](CCCNC(=N)N)C(=O)N[C@H](C(=O)N[C@@H](CCCNC(=N)N)C(N)=O)CSSC[C@H](NC(=O)[C@H](Cc1c[nH]c3ccccc13)NC(=O)[C@@H](N)CCCCN)C(=O)N[C@@H](Cc1ccccc1)C(=O)N[C@@H](CCCNC(=N)N)C(=O)N[C@@H](C(C)C)C(=O)N2 [TP1, Tachyplesin 1] (H-KWCFRVCYRGICYRRCR-NH2; disulfide 3-16, 7-12)
[10]; 37 °C 24 h
  MBC, B. pseudomallei (average): 193.35 ± 2.00E-14 μM
[10]
  MIC, B. pseudomallei (average): 61.69 ± 6.38 µM (≈ 140 µg/mL)
[11]
  Susceptibility of strain to AMP (S/R), preliminary study: S
[17]
  cell morphology by SEM: membrane blebbing; also recorded: corrugated with dimples on the surface
[12]
  MTT, mean over the lower concentrations: 91.041
[4]
  concentration inhibiting B. pseudomallei K96243 growth: > 55 µM
  time after exposure to growth inhibition: following eight hours of exposure
  viable bacteria at 24 h: 9.96 log CFU/ml
[5]
  MBEC: not achieved
  Mean Diff., 0 vs concentration (Bonferroni's test): 4.116 and 4.208
  Mean Diff., Untreated vs treated, Dunnett's Multiple Comparison Test (data for figure 2): 3.641
  concentration of maximum inhibition of cells in biofilm state: 442 µM
  concentration reducing the number of B. pseudomallei in biofilm state: above 55 μM
  inhibition activity of TP1 higher than LL-37: approximately 2.0 log
  inhibition activity of TP1 lower than PG1: 3.5 log
  log reduction of bacteria in biofilm state: 1.0 log and 1.3 log
  reduction of surviving bacteria in biofilm state compared to the untreated (significance): significant reduction
  surviving bacteria in biofilm state: ~4.00 log CFU/biofilm
  surviving bacteria in biofilm state 24 h post exposure: 4.2 log CFU/biofilm
[5]; 24 h
  surviving bacteria in biofilm state at the end of the TP1 concentration series: 3.6 log CFU/biofilm
[8]; ATCC 29522, 24 h
  MBC, E.coli (ATCC 29522): 22.1 ± 0 µM (≈ 50 µg/mL)
  MIC, E.coli (ATCC 29522): 22.1 ± 0 µM (≈ 50 µg/mL)
[14]
  MTT, mean over the lower concentrations: 87.0414
[14]; 2 h, 2.7 μM
  percentage of viable cells, AGS: 85.1%
[14]; 2 h, 48.6 μM
  percentage of viable cells, AGS: 80%
[14]; 24 h, 22.3 μM
  percentage of viable cells, AGS: 90.0 ± 8.4%
[15]
  B. pseudomallei isolates susceptible to the AMP: 83%
  Susceptibility of strain to AMP (S/R), preliminary study: S and R
[16]
  MTT, mean over the lower concentrations: 86.0736

## GFKLKGMARISCLPNGQWSNFPPKCIRECA [Sushi 1]
[11]
  Susceptibility of strain to AMP (S/R), preliminary study: S
[5]
  Mean Diff., Untreated vs treated, Dunnett's Multiple Comparison Test (data for figure 2): 0.04572
[15]
  Susceptibility of strain to AMP (S/R), preliminary study: R

## GIGKFLHSAKKFGKAFVGEIMNS [Magainin 2]
[11]
  Susceptibility of strain to AMP (S/R), preliminary study: S
[5]
  Mean Diff., Untreated vs treated, Dunnett's Multiple Comparison Test (data for figure 2): 0.2494
[15]
  Susceptibility of strain to AMP (S/R), preliminary study: R

## HAEHKVKIGVEQKYGQFPQGTEVTYTCSGNYFLM [Sushi 3]
[11]
  Susceptibility of strain to AMP (S/R), preliminary study: S
[5]
  Mean Diff., Untreated vs treated, Dunnett's Multiple Comparison Test (data for figure 2): 0.04165
[15]
  Susceptibility of strain to AMP (S/R), preliminary study: R

## Ornithine
[11]
  Susceptibility of strain to AMP (S/R), preliminary study: S
[15]
  Susceptibility of strain to AMP (S/R), preliminary study: R
